Data set [1] concerns SUDHL5. Kind of data set: Induction of cytotoxicity (CellTiter-Glo, 5 h), SUDHL5.
Data set [2] concerns SUDHL10. The experiment in a line: Induction of caspase-3/7 activity (Caspase-Glo 3/7), SUDHL10. Type of data set: cell-based. The settings on record: caspase-3/7 induction, SUDHL10 cells, 3 h treatment, median. The procedure, abridged: (§1)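 DLBCL cells treated with compounds for 3 h at 37 °C, then caspase-3/7 activity read by Caspase-Glo 3/7 luminescence. Medium-only background subtracted; EC50 fitted with C0 fixed at 1 and top set to the reference compound's maximal induction.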

Data set [3] relates to SUDHL5. The experiment in a line: Induction of caspase-3/7 activity (Caspase-Glo 3/7), SUDHL5. The class given is cell-based. The settings on record: caspase-3/7 induction, SUDHL5 cells, 3 h treatment, median. The essentials: as §1
Data set [4] relates to SUDHL10. The experiment in a line: Induction of cytotoxicity (CellTiter-Glo, 5 h), SUDHL10.
For data set [5], the system named is MV-4-11. The experiment in a line: Anti-proliferative effect (CellTiter-Glo, 72 h), MV-4-11. The settings on record: MV-4-11 cells, median, read-out: IC50 antiproliferation assay MV-4-11 [M] (median). Type of data set: cell-based. As to the method:
Assessment of the Anti-Proliferative Effect of Compounds in Different Cell Lines
The impact of compounds on the proliferation of different cell lines was assessed using the CellTiter-Glo® Luminescent Cell Viability reagent from Promega (G7573). Of note, SUDHL10 and SUDHL5 (DLBCL), NCI-H929 (Multiple Myeloma), A2780 (ovarian carcinoma) as well as MV-4-11(AML) cells are sensitive to MCL-1 inhibition.
In parallel, cells were plated in a reference (day 0) plate for time zero determination.
Rim wells were excluded. The cells were incubated for 72 h hours in a humidified incubator at 37° C. The day 0 plate was measured by adding 30 μl/well of CTG solution (CellTiter-Glo® Luminescent Cell Viability reagent, Promega G7573) to time zero wells in the reference plate followed by a 10 minutes incubation and luminescence reading at 0.1 ms, using the PHERAstar FS microplate reader (BMG Labtech).
After 72 h incubation, the treated plates were measured in the same way as the day 0 plate mentioned above.
(Cellular ATP, detected with luciferase, serves as a proxy for viable cell number.)

Data set [6] addresses MCL-1 (Homo sapiens, UniProt Q07820). Kind of data set: Protein-protein interaction assay MCL-1/Noxa BH3 peptide (MCL-1 assay), TR-FRET. The settings on record: MBP-MCL-1 / Noxa BH3-derived peptide, median. Type of data set: binding. The procedure, abridged: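 TR-FRET, 665/622 nm emission ratio (excitation 330–350 nm), measured MCL-1/Noxa complex formation. 1 nM MBP-MCL-1, 50 mM Tris/HCl pH 7, 0.1% BGG, 2 mM DTT. Incubation 1 h at 22 °C, then overnight at 4 °C. IC50 by 4-parameter regression, normalized to DMSO (0%) and no-MCL-1 (100%) controls.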
Background: TR-FRET usually uses a lanthanide donor and a delayed reading to cut background.

Data set [7] has as its system A2780. Kind of data set: Anti-proliferative effect (CellTiter-Glo, 72 h), A2780. The class given is cell-based. The settings on record: A2780 cells, median, read-out: IC50 antiproliferation assay A2780 [M] (median). The procedure, abridged: (§2)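 Cells were treated with compounds for 72 h at 37 °C in a humidified incubator, and viability was measured by CellTiter-Glo luminescence. A parallel day 0 plate, read the same way, gave the time zero baseline.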

The test system of data set [8] is SUDHL10. Kind of data set: Anti-proliferative effect (CellTiter-Glo, 72 h), SUDHL10. The class given is cell-based. The conditions noted are these: SUDHL10 cells, antiproliferation, 72 h incubation, median, read-out: Antiproli SUDHL10 [M] (median). The essentials: as §2
For data set [9], the system named is OPM2. Kind of data set: Anti-proliferative effect (CellTiter-Glo, 72 h), OPM2. The conditions noted are these: OPM2 cells, median, read-out: IC50 antiproliferation assay OPM2 [M] (median). Type of data set: cell-based. The procedure, abridged:
as §2

Data set [10] concerns SUDHL5. Kind of data set: Anti-proliferative effect (CellTiter-Glo, 72 h), SUDHL5. Type of data set: cell-based. The settings on record: SUDHL5 cells, antiproliferation, 72 h incubation, median, read-out: Antiproli SUDHL5 [M] (median). The essentials:
as §2

[11] abbreviates: Homo sapiens, SU-DHL10, 5 h, read-out: Cytotox SUDHL10 [M] (median), SUDHL10 cells, cytotoxicity induction, CellTiter-Glo, 5 h, median.
Where [12] appears, read: read-out: Cytotox SUDHL5 [M] (median), SUDHL5 cells, cytotoxicity induction, CellTiter-Glo, 5 h incubation, median.
The mark [13] stands for this setting: read-out: Cytotox SUDHL10 [M] (median), SUDHL10 cells, cytotoxicity induction, CellTiter-Glo, 5 h incubation, median.

Consider 9 compounds from patent US10981932B2, “Macrocyclic indole derivatives” (Bayer Aktiengesellschaft, priority 2016, dated 2021).

Each structure is given as a SMILES string. Like-named read-outs stand apart in the source and are kept apart here.

Chain of MCL-1 (Q07820 whole entry): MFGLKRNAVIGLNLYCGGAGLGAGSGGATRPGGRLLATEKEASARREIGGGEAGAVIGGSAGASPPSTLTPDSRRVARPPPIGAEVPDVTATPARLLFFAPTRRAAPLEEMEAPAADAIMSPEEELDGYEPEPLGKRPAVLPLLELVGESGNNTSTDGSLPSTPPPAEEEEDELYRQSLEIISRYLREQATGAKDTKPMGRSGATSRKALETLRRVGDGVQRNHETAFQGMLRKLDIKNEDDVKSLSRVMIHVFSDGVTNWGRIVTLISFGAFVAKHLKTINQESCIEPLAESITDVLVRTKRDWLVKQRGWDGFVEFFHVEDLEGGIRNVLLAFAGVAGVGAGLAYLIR

A word on the EC50: it is the concentration that produces a half-maximal response. As to `Cc1nn(C)c2c1-c1cccc3c(CCCOc4cccc5ccccc45)c(C(=O)O)n(c13)CCCCN(C)C2` (single isomer, unassigned) [Example 239, (−)-1,3,15-trimethyl-7-[3-(naphthalen-1-yloxy)propyl]-1,10,11,12,13,14,15,16-octahydropyrazolo[4′,3′:4,5][1,7]diazacyclododecino[3,2,1-hi]indole-8-carboxylic Acid], the IC50 was over 3.3e-05 M in data set [1] (Homo sapiens, SU-DHL-5, 5 h, read-out: Cytotox SUDHL5 [M] (median), SUDHL5 cells, cytotoxicity induction, CellTiter-Glo, 5 h incubation, median); 3.03e-05 M in [4] (Homo sapiens, SU-DHL10, 5 h, read-out: Cytotox SUDHL10 [M] (median), SUDHL10 cells, cytotoxicity induction, CellTiter-Glo, 5 h incubation, median); 1.07e-05 M in data set [5] (Homo sapiens, MV4-11, 72 h); 0.0927 µM in data set [6]; 2.27e-05 M in data set [7] (Homo sapiens, A2780, 72 h). The EC50 in data set [2] (Homo sapiens, SU-DHL10, 3 h) is over 33 µM; in data set [3] (Homo sapiens, SU-DHL-5, 3 h) it was over 33 µM.

Take `CCc1nn(C)c2c1-c1cccc3c(CCCOc4cccc5cc(Cl)ccc45)c(C(=O)O)n(c13)CCCCOC2` (single isomer, unassigned; enantiomer 1) [Example 305, 7-{3-[(6-chloronaphthalen-1-yl)oxy]propyl}-3-ethyl-1-methyl-1,10,11,12,13,15-hexahydropyrazolo[4′,3′:9,10][1,6]oxazacycloundecino[8,7,6-hi]indole-8-carboxylic Acid (Enantiomer 1)]: the IC50 in data set [5] (Homo sapiens, MV4-11, 72 h) is 1.36e-05 M; in data set [6], 0.00536 µM; in data set [7] it was over 3.3e-05 M.

As for `Cc1ccc2c(OCCCc3c(C(=O)O)n4c5c(cccc35)-c3c(nn(C)c3C)COCCCC4)cccc2c1` (single isomer, unassigned; enantiomer 1) [Example 308, 2,3-dimethyl-7-{3-[(6-methylnaphthalen-1-yl)oxy]propyl}-2,10,11,12,13,15-hexahydropyrazolo[4′3′:9,10][1,6]oxazacycloundecino[8,7,6-hi]indole-carboxylic Acid (Enantiomer 1)], the IC50 in [1] (read-out: Cytotox SUDHL5 [M] (median), SUDHL5 cells, cytotoxicity induction, CellTiter-Glo, 5 h, median) was 5.61e-06 M; in [4] (setting [11]) it was over 3.3e-05 M; in [5] (Homo sapiens, MV4-11, 72 h), over 3.3e-05 M; in data set [6], 0.00507 µM; in [7] (Homo sapiens, A2780, 72 h), over 3.3e-05 M. Besides, the EC50 is over 33 µM in data set [2] (Homo sapiens, SU-DHL10, 3 h) and 7.18 µM in [3].

`Cc1c2c(nn1C)COCCCCn1c(C(=O)O)c(CCCOc3cccc4cc(C(F)(F)F)ccc34)c3cccc-2c31` (single isomer, unassigned; enantiomer 1) [Example 311, 2,3-dimethyl-7-(3-{[6-(trifluoromethyl)naphthalen-1-yl]oxy}propyl)-2,10,11,12,13,15-hexahydropyrazolo[4′,3′:9,10][1,6]oxazacycloundecino[8,7,6-hi]indole-8-carboxylic Acid (Enantiomer 1)]: the IC50 was determined as 2.12e-05 M in data set [1] (Homo sapiens, SU-DHL-5, 5 h, read-out: Cytotox SUDHL5 [M] (median), SUDHL5 cells, cytotoxicity induction, CellTiter-Glo, 5 h, median); 1.49e-05 M in [4] (setting [11]); 1.16e-05 M in [5] (Homo sapiens, MV4-11, 72 h); 0.543 µM in data set [6]; 1.11e-05 M in [7] (Homo sapiens, A2780, 72 h). In addition, the EC50 was over 33 µM in [2] (Homo sapiens, SU-DHL10, 3 h) and over 33 µM in data set [3] (Homo sapiens, SU-DHL-5, 3 h).

In the case of `CN1CCCn2c(C(=O)O)c(CCCOc3cccc4ccccc34)c3cccc(c32)-c2c(COc3ccc(-n4ccccc4=O)cc3)nn(C)c2C1` (single isomer, unassigned; enantiomer 2) [Example 1-116, 7,9-Dimethyl-1-[3-(1-naphthyloxy)propyl]-11-{[4-(2-oxopyridin-1(2H)-yl)phenoxy]methyl}-4,5,6,7,8,9-hexahydropyrazolo[3′,4′:7,8][1,5]diazecino[9,10,1-hi]indole-2-carboxylic Acid (Enantiomer 2)], the IC50 is 1.18e-05 M in data set [8]; 1.32e-05 M in data set [1] (setting [12]); 2.96e-05 M in [9]; 3.25e-06 M in data set [10]; over 3.3e-05 M in data set [4] (setting [13]); 0.0137 µM in [6]. The IC50 in data set [7] (Homo sapiens, A2780, 72 h) was over 3.3e-05 M. In addition, the results for the EC50 in data set [2] and in data set [3] were 19.9 µM and 16.9 µM, respectively.

On to `Cn1nc(COc2ccc(N3CCOCC3)cc2)c2c1COCCCCn1c(C(=O)O)c(CCCOc3cccc4ccccc34)c3cccc-2c31` (single isomer, unassigned; enantiomer 2) [Example 123, 1-methyl-3-{[4-(morpholin-4-yl)phenoxy]methyl}-7-[3-(naphthalen-1-yloxy)propyl]-1,10,11,12,13,15-hexahydropyrazolo[4′,3′:9,10][1,6]oxazacycloundecino[8,7,6-hi]indole-8-carboxylic Acid (Enantiomer 2)], for which the IC50 in data set [8] worked out at 1.01e-05 M; in data set [1] (setting [12]), 3.13e-06 M; in [9], 4.32e-06 M; in data set [10] it was 2.28e-06 M; in data set [4] (setting [13]), 2.1e-05 M; in [6], 0.00314 µM. In addition, the IC50 in [7] was found to be 1.14e-05 M. Further, the EC50 came to 7.36 µM in data set [2] and 4.11 µM in data set [3].

Turning to `CCOCc1nn(C)c2c1-c1cccc3c(CCCOc4cccc5ccccc45)c(C(=O)O)n(c13)CCCCOC2` (single isomer, unassigned; enantiomer 2) [Example 170, 3-(ethoxymethyl)-1-methyl-7-[3-(naphthalen-1-yloxy)propyl]-1,10,11,12,13,15-hexahydropyrazolo[4′,3′:9,10][1,6]oxazacycloundecino[8,7,6-hi]indole-8-carboxylic Acid (Enantiomer 2)], the IC50 in [8] came out at 4.36e-06 M; in [1] (setting [12]) it was 6.94e-06 M; in data set [9], 1.34e-05 M; in [10] it was 1.01e-05 M; in [4] (setting [13]) it was 2e-05 M; in [6], 0.00297 µM. Besides, the IC50 in data set [7] is 2.67e-05 M. Moreover, the EC50 in data set [2] was 15.6 µM; in data set [3], 5.36 µM.

Regarding `CCc1nn(C)c2c1-c1cccc3c(CCCOc4cccc5cc(Cl)ccc45)c(C(=O)O)n(c13)CCCCOC2` (single isomer, unassigned; enantiomer 2) [Example 306, 7-{3-[(6-chloronaphthalen-1-yl)oxypropyl}-3-ethyl-1-methyl-1,10,11,12,13,15-hexahydropyrazolo[4′,3′:9,10](1,6]oxazacycloundecino[8,7,6-hi]indole-8-carboxylic Acid (Enantiomer 2)], the IC50 amounted to 1.5e-05 M in data set [5], 0.286 µM in data set [6] and 1.02e-05 M in data set [7].

For `Cc1c2c(nn1C)COCCCCn1c(C(=O)O)c(CCCOc3cccc4cc(C(F)(F)F)ccc34)c3cccc-2c31` (single isomer, unassigned; enantiomer 2) [Example 312, 2,3-dimethyl-7-(3-{[6-(trifluoromethyl)naphthalen-1-yl]oxy}propyl)-2,10,11,12,13,15-hexahydropyrazolo[4′,3′:9,10][1,6]oxazacycloundecino[8,7,6-hi]indole-8-carboxylic Acid (Enantiomer 2)], the IC50 came out at 1.28e-05 M in [5], 0.022 µM in data set [6] and 1.05e-05 M in data set [7].
